PubChem BioAssay (NCI)
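Five compound concentrations were applied to cells in 96-well plates for 48 hours; endpoints were derived by simple linear interpolation of the resulting dose-response curve. The concentration for 50% growth inhibition is given as GI50. At the TGI there is no net growth.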

Assays:
Assay in all cases: NCI anticancer screen, dose series, 48 h
[1] = test system: SR leukemia
[2] = test system: UACC-62 melanoma
[3] = test system: KM12 colon
[4] = test system: SK-OV-3 ovarian
[5] = test system: A498 renal
[6] = test system: K-562 leukemia
[7] = test system: NCI-H522 lung
[8] = test system: MALME-3M melanoma
[9] = test system: DU-145 prostate
[10] = test system: NCI/ADR-RES ovarian
[11] = test system: CAKI-1 renal
[12] = test system: RXF 393 renal
[13] = test system: NCI-H23 lung
[14] = test system: SK-MEL-28 melanoma
[15] = test system: MDA-MB-231 breast
[16] = test system: SF-539 CNS
[17] = test system: U251 CNS
[18] = test system: HL-60(TB) leukemia
[19] = test system: IGROV1 ovarian
[20] = test system: BT-549 breast
[21] = test system: OVCAR-4 ovarian
[22] = test system: HCC-2998 colon
[23] = test system: HT29 colon
[24] = test system: EKVX NSCLC
[25] = test system: SN12C renal
[26] = test system: SW-620 colon
[27] = test system: SNB-75 CNS
[28] = test system: ACHN renal
[29] = test system: HS 578T breast
[30] = test system: 786-0 renal
[31] = test system: T-47D breast
[32] = test system: M14 melanoma
[33] = test system: CCRF-CEM leukemia
[34] = test system: HCT-15 colon
[35] = test system: LOX IMVI melanoma
[36] = test system: OVCAR-3 ovarian
[37] = test system: OVCAR-5 ovarian
[38] = test system: HCT-116 colon
[39] = test system: SK-MEL-2 melanoma
[40] = test system: A549 NSCLC
[41] = test system: OVCAR-8 ovarian
[42] = test system: RPMI-8226 leukemia
[43] = test system: COLO 205 colon
[44] = test system: MDA-MB-435
[45] = test system: SF-295 CNS
[46] = test system: PC-3 prostate
[47] = test system: TK-10 renal
[48] = test system: HOP-62 NSCLC
[49] = test system: NCI-H226 lung
[50] = test system: UO-31 renal
[51] = test system: UACC-257 melanoma
[52] = test system: HOP-92 NSCLC
[53] = test system: SK-MEL-5 melanoma
[54] = test system: MCF7 breast
[55] = test system: SNB-19 CNS
[56] = test system: NCI-H460 lung
[57] = test system: MOLT-4 leukemia
[58] = test system: SF-268 CNS

COc1cccc2c(Nc3ccc(C(=O)O)cc3)cc(-c3ccccc3)nc12
GI50 [1]: > 100 µM | TGI [1]: > 100 µM | GI50 [2]: > 100 µM | TGI [2]: > 100 µM | GI50 [3]: > 100 µM | TGI [3]: > 100 µM | GI50 [4]: > 100 µM | TGI [4]: > 100 µM | GI50 [5]: > 100 µM | TGI [5]: > 100 µM | GI50 [6]: > 100 µM | TGI [6]: > 100 µM | GI50 [7]: > 100 µM | TGI [7]: > 100 µM | GI50 [8]: > 100 µM | TGI [8]: > 100 µM | GI50 [9]: > 100 µM | TGI [9]: > 100 µM | GI50 [10]: > 100 µM | TGI [10]: > 100 µM | GI50 [11]: > 100 µM | TGI [11]: > 100 µM | GI50 [12]: > 100 µM | TGI [12]: > 100 µM | GI50 [13]: > 100 µM | TGI [13]: > 100 µM | GI50 [14]: > 100 µM | TGI [14]: > 100 µM | GI50 [15]: > 100 µM | TGI [15]: > 100 µM | GI50 [16]: > 100 µM | TGI [16]: > 100 µM | GI50 [17]: > 100 µM | TGI [17]: > 100 µM | GI50 [18]: > 100 µM | TGI [18]: > 100 µM | GI50 [19]: > 100 µM | TGI [19]: > 100 µM | GI50 [20]: > 100 µM | TGI [20]: > 100 µM | GI50 [21]: > 100 µM | TGI [21]: > 100 µM | GI50 [22]: > 100 µM | TGI [22]: > 100 µM | GI50 [23]: > 100 µM | TGI [23]: > 100 µM | GI50 [24]: > 100 µM | TGI [24]: > 100 µM | GI50 [25]: > 100 µM | TGI [25]: > 100 µM | GI50 [26]: > 100 µM | TGI [26]: > 100 µM | GI50 [27]: 72.3 µM | TGI [27]: > 100 µM | GI50 [28]: > 100 µM | TGI [28]: > 100 µM | GI50 [29]: > 100 µM | TGI [29]: > 100 µM | GI50 [30]: > 100 µM | TGI [30]: > 100 µM | GI50 [31]: 84.5 µM | TGI [31]: > 100 µM | GI50 [32]: > 100 µM | TGI [32]: > 100 µM | GI50 [33]: > 100 µM | TGI [33]: > 100 µM | GI50 [34]: > 100 µM | TGI [34]: > 100 µM | GI50 [35]: > 100 µM | TGI [35]: > 100 µM | GI50 [36]: > 100 µM | TGI [36]: > 100 µM | GI50 [37]: > 100 µM | TGI [37]: > 100 µM | GI50 [38]: > 100 µM | TGI [38]: > 100 µM | GI50 [39]: > 100 µM | TGI [39]: > 100 µM | GI50 [40]: > 100 µM | TGI [40]: > 100 µM | GI50 [41]: > 100 µM | TGI [41]: > 100 µM | GI50 [42]: > 100 µM | TGI [42]: > 100 µM | GI50 [43]: > 100 µM | TGI [43]: > 100 µM | GI50 [44]: > 100 µM | TGI [44]: > 100 µM | GI50 [45]: > 100 µM | TGI [45]: > 100 µM | GI50 [46]: > 100 µM | TGI [46]: > 100 µM | GI50 [47]: > 100 µM | TGI [47]: > 100 µM | GI50 [48]: > 100 µM | TGI [48]: > 100 µM | GI50 [49]: > 100 µM | TGI [49]: > 100 µM | GI50 [50]: > 100 µM | TGI [50]: > 100 µM | GI50 [51]: > 100 µM | TGI [51]: > 100 µM | GI50 [52]: 39.4 µM | TGI [52]: > 100 µM

COc1ccc(/C(COc2ccc3c(c2)oc(=O)c2cc(OC)ccc23)=N/O)cc1
GI50 [2]: 3.94 µM | TGI [2]: > 100 µM | GI50 [3]: 4.67 µM | TGI [3]: > 100 µM | GI50 [53]: 4.27 µM | TGI [53]: 69.4 µM | GI50 [4]: 37.4 µM | TGI [4]: > 100 µM | GI50 [5]: 3.22 µM | TGI [5]: 52.2 µM | GI50 [6]: 5.36 µM | TGI [6]: > 100 µM | GI50 [7]: 3.55 µM | TGI [7]: 19.1 µM | GI50 [8]: 65.7 µM | TGI [8]: > 100 µM | GI50 [9]: 29.2 µM | TGI [9]: > 100 µM | GI50 [10]: 2.96 µM | TGI [10]: 9.76 µM | GI50 [11]: 6.4 µM | TGI [11]: > 100 µM | GI50 [12]: 26.8 µM | TGI [12]: > 100 µM | GI50 [13]: 20.5 µM | TGI [13]: > 100 µM | GI50 [54]: 4.16 µM | TGI [54]: > 100 µM | GI50 [14]: 4.86 µM | TGI [14]: > 100 µM | GI50 [15]: 10.8 µM | TGI [15]: > 100 µM | GI50 [16]: 8.33 µM | TGI [16]: 51.3 µM | GI50 [17]: 5.08 µM | TGI [17]: > 100 µM | GI50 [19]: 4.87 µM | TGI [19]: > 100 µM | GI50 [20]: 15 µM | TGI [20]: > 100 µM | GI50 [21]: 24.7 µM | TGI [21]: > 100 µM | GI50 [22]: 7.64 µM | TGI [22]: > 100 µM | GI50 [23]: 3.72 µM | TGI [23]: 74.8 µM | GI50 [24]: 23.7 µM | TGI [24]: > 100 µM | GI50 [25]: 13.6 µM | TGI [25]: > 100 µM | GI50 [26]: 4.34 µM | TGI [26]: > 100 µM | GI50 [27]: 2.73 µM | TGI [27]: 9.98 µM | GI50 [29]: 10.6 µM | TGI [29]: > 100 µM | GI50 [30]: 14.8 µM | TGI [30]: > 100 µM | GI50 [31]: 6.9 µM | TGI [31]: > 100 µM | GI50 [32]: 4.29 µM | TGI [32]: > 100 µM | GI50 [33]: 8.05 µM | TGI [33]: > 100 µM | GI50 [34]: 5.16 µM | TGI [34]: > 100 µM | GI50 [35]: 8.12 µM | TGI [35]: 67.2 µM | GI50 [36]: 3.68 µM | TGI [36]: > 100 µM | GI50 [37]: > 100 µM | TGI [37]: > 100 µM | GI50 [55]: 4.34 µM | TGI [55]: > 100 µM | GI50 [38]: 4.18 µM | TGI [38]: > 100 µM | GI50 [39]: 15.2 µM | TGI [39]: > 100 µM | GI50 [40]: 7.41 µM | TGI [40]: > 100 µM | GI50 [56]: 3.97 µM | TGI [56]: > 100 µM | GI50 [57]: 5.86 µM | TGI [57]: > 100 µM | GI50 [58]: 8.33 µM | TGI [58]: > 100 µM | GI50 [41]: 11.4 µM | TGI [41]: > 100 µM | GI50 [42]: 5.44 µM | TGI [42]: > 100 µM | GI50 [43]: 3.75 µM | TGI [43]: > 100 µM | GI50 [45]: 6.2 µM | TGI [45]: > 100 µM | GI50 [46]: 7.28 µM | TGI [46]: > 100 µM | GI50 [47]: 8.14 µM | TGI [47]: > 100 µM | GI50 [48]: 8.86 µM | TGI [48]: > 100 µM | GI50 [49]: 41.7 µM | TGI [49]: > 100 µM | GI50 [50]: 17.1 µM | TGI [50]: > 100 µM | GI50 [51]: 24.8 µM | TGI [51]: > 100 µM | GI50 [52]: 80.9 µM | TGI [52]: > 100 µM
